{
  "source": "patent US20060019883A1",
  "about": "“Use of cyclin D1 inhibitors” (priority 2003, published 2006)",
  "tested_on": "ER-positive breast cancer",
  "experiment": "Randomised clinical trial: 2 years of tamoxifen treatment or no adjuvant treatment, breast cancer specific survival in relation to cyclin D1",
  "assay_type": "in vivo, patients",
  "conditions": "for Median survival time of deceased patients / Mortality rate: tumours with >90% ER positive cells",
  "text": "The breast cancer material used in this study initially included 168 post-menopausal (>55 years old) patients with small (T0-T1) node-negative (N0) tumours. […] Data regarding breast cancer specific survival was obtained from the Swedish Cancer Registry (2002) resulting in a mean follow-up time of 18 years (range 15-22 years). Representative parts of the tumours were assembled in a tissue array, sectioned and immunohistochemically stained for ER (antibodies M7047 from Dako, Denmark, diluted 1/200) and cyclin D1 (M7155, Dako, Denmark, 1/100). […] The alternative model is that cyclin D1 could sequester cdk-inhibitors thereby effecting the G1/S control and tamoxifen response.\nE: Cumulative total survival in the patient group of cyclin D1 high breast cancer subdivided according to tamoxifen treatment or nor treatment.",
  "key": {"[1]": {"conditions": "High CD1 and tamoxifen treatment"}, "[2]": {"conditions": "Moderate/low CD1 and tamoxifen treatment"}},
  "note": "“Also recorded” adds a separate entry of the source.",
  "data": [
    {"smiles": "CC/C(=C(\\c1ccccc1)c1ccc(OCCN(C)C)cc1)c1ccccc1", "note": "[tamoxifen]", "values": [
      {"measurement": "Difference in survival for tamoxifen in comparison to no treatment", "setting": "102 tumours with >90% ER positive cells", "value": "marked difference in survival"},
      {"measurement": "Median survival time of deceased patients", "setting": "[1]", "value": 47, "unit": "months*"},
      {"measurement": "Mortality rate", "setting": "[1]", "value": 39, "unit": "%"},
      {"measurement": "Median survival time of deceased patients", "setting": "[2]", "value": 169, "unit": "months"},
      {"measurement": "Mortality rate", "setting": "[2]", "value": 63, "unit": "%"},
      {"measurement": "Difference in survival for tamoxifen in comparison to no treatment", "setting": "tumours lacking or expressing low ER and tumours with 10-90% ER positive cells", "value": "did not show any significant difference in survival"},
      {"measurement": "Difference in survival between tamoxifen and no treatment", "setting": "tumours with high cyclin D1", "value": "this difference was eliminated; also recorded: little or no effect"}
    ]}
  ]
}
